Like-named read-outs stand apart in the source and are kept apart here.
Experiments:
[1] = target: T1, zfSARM1 (Danio rerio, UniProt F1QWA8); assay: Kinetic parameters of zfSARM1, substrate inhibition fit; format: biochemical, Zebrafish
T1 sequence (F1QWA8 1-713): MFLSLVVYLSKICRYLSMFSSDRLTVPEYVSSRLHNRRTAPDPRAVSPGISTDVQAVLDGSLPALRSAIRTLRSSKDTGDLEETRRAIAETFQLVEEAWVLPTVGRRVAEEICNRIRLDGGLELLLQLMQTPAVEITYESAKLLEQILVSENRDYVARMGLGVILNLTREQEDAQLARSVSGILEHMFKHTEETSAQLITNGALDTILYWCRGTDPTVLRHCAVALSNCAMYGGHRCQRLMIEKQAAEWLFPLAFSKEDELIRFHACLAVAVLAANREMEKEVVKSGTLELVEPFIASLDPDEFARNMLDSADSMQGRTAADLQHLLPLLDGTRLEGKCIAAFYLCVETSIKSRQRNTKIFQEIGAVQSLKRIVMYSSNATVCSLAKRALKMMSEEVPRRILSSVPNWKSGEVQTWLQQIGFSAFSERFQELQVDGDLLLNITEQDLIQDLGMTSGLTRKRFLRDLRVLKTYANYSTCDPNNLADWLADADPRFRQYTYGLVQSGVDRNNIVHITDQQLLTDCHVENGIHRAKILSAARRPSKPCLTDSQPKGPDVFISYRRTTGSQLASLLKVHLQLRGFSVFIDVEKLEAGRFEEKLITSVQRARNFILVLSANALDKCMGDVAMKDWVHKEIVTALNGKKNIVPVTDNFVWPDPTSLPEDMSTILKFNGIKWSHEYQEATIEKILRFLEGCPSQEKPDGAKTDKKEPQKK
Method: FIG. 14C. […] The kinetic parameters were determined from plots of reaction velocity of NAD+ consumption versus substrate (NAD+) concentration and then fitted to the Michaelis-Menten equation (Km and Vmax) or substrate inhibition equation (Ki) using non-linear curve fit in GraphPad Prism. Kcat was calculated by dividing the Vmax with protein molar concentration.
For Vmax and Km determination, the NADase activity assay was performed with several different NAD+ substrate concentrations and sampled in constant time points. For each NAD+ concentration, linear increase zone was taken for slope (V0) calculation. All data were than fitted to the Michaelis-Menten equation using non-linear curve fit in GraphPad Prism software. Kcat was calculated by dividing the Vmax with protein molar concentration.

[2] = target: T2, hSARM1 (Homo sapiens, UniProt Q6SZW1); assay: eNAD-based NADase assay; format: biochemical; details: 1:10 eNAD:NAD+; 400 nM enzyme; activity decreases at higher concentrations
T2 construct: hSARM1w.t; (26ERL . . . GPT724) that was not mutated in E642, was also expressed and isolated; 6xHis (N); TEV cleavage site (N); made in house; host or cells: HEK293F suspension cells
T2 sequence (Q6SZW1 with tags, fused parts or gaps): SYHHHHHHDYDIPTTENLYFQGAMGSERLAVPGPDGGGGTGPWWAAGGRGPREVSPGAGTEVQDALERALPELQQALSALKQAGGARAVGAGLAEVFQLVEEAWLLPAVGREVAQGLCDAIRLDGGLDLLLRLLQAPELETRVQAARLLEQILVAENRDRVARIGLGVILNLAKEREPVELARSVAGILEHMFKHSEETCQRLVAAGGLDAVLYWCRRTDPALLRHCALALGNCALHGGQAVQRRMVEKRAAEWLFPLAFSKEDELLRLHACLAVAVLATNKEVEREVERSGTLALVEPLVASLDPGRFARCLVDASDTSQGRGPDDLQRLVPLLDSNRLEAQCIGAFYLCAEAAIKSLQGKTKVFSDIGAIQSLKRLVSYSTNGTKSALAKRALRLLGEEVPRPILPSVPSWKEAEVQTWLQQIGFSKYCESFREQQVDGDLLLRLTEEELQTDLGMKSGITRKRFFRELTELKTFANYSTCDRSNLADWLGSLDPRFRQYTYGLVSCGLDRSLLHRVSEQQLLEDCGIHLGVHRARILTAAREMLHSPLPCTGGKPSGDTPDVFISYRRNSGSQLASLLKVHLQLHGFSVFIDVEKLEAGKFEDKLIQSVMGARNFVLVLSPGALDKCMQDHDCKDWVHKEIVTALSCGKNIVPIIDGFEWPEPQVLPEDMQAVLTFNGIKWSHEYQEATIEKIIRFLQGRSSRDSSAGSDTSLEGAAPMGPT
Method: FIG. 7D: Rate of change in nucleotide fluorescence under steady-state conditions of eNAD hydrolysis by hSARM1. Reactions were initiated by mixing 400 nM enzyme with different concentrations of 1:10 eNAD+: NAD+(mol/mol) mixtures. Three repeats, standard deviation error bars.
Serial dilutions were made with 25 mM HEPES pH 7.5, 150 mM NaCl buffer and the final mix was transferred to 384-well black plate (Corning). Reaction started by the addition of hSARM1 to a final concentration 400 nM. Then, eNAD degradation rate was monitored by fluorescence reading (330-nm excitation and 405-nm emission wavelengths) of the plate using a SynergyHI (BioTek) in 25° C. for 3 hours. For each NAD+ concentration, a control reaction without SARM1 was measured and subtracted from the + hSARM1 reading and the slope of the linear area was calculated. For the final plot, average of slopes from 3 separate assays for each concentration was calculated.

[3] = target: T2, hSARM1; assay: In vitro hSARM1 NADase activity, Resasurin assay; format: biochemical
Method: For quantitation of hSARM1 NADase activity and the inhibitory effect of selected compounds (FIG. 6F; FIG. 7A-7B), purified hSARM1w.t. and hSARM1E642Q proteins were first diluted to 400 nM concentration in 25 mM HEPES pH 7.5, 150 mM NaCl, and then mixed in 25° C. with 1 uM of NAD+(in the same buffer) with a 1:1 v/v ratio. All inhibitors were diluted with the same buffer, and the pH values were measured and if necessary titrated to 7.5. Inhibitors were pre-incubated for 20 min with hSARM1 in 25° C. before mixing with NAD+. At designated time points, reactions were quenched by placing the reaction tubes in 95° C. for 2 min. Measurement of NAD+ concentrations was made by a modified enzymatic coupled cycling assay (K. S. Kanamori et al., NAD. Bio Protoc 8, (2018)). The reaction mix, which includes 100 mM Phosphate buffer pH=8, 0.78% ethanol, 4 uM FMN (Riboflavin 5′-monophosphate sodium salt hydrate), 27.2 U/ml Alcohol dehydrogenase (SIGMA), 1.8 U/ml Diaphorase (SIGMA) and freshly dissolved (in DDW) 8 uM Resasurin (SIGMA), was added to each sample at 1:1 (v/v) ratio and then transferred to 384-well black plate (Corning). Fluorescent data was measured using a SynergyHI (BioTek) plate reader at 554-nm excitation and 593-nm emission wavelengths. Standard curve equation for calculation of NAD+ concentration was created for each assay from constant NAD+ concentrations.

`NC(=O)c1ccc[n+]([C@@H]2O[C@H](COP(=O)([O-])OP(=O)(O)OC[C@H]3O[C@@H](n4cnc5c(N)ncnc54)[C@H](O)[C@@H]3O)[C@@H](O)[C@H]2O)c1` [NAD+, Nicotinamide adenine dinucleotide] was tested, and the Ki ([1]; apparent inhibition by substrate, read-out: Ki for NAD+, zfSARM1) was 1350 µM, the Ki ([1]; substrate inhibition equation, read-out: Ki, inhibition by the substrate NAD+, zfSARM1) was 1300 µM and the “NAD+ concentration at the highest rate of hydrolysis” value [2] was 100 µM.

`Nc1ncnc2c1ncn2[C@@H]1O[C@H](COP(=O)(O)OP(=O)(O)OP(=O)(O)O)[C@@H](O)[C@H]1O` [ATP] was tested, and the “inhibition of hSARM1 NADase activity” value ([3]; analyzed as for glycerol, FIG. 7A) was “inhibits the NADase activity of hSARM1 in a dose-dependent manner”.

For `OCC(O)CO` [glycerol], the “inhibition of hSARM1 NADase activity” value ([3]; 15% glycerol, measured 20 minutes after adding 0.5 μM NAD+) was 72%.

— patent US20220241416A1, “METHODS FOR THE IDENTIFICATION OF SARM1 NADASE ACTIVITY INHIBITORS AND USES THEREOF” (Bar Ilan University, priority 2021, published 2022)
